Source: patent publication US5980933A, “Transdermal formulation of xanomeline” (Eli Liily and Company, priority 1997, dated 1999)

Tests used:
[1] = system: muscarinic receptors in the brain; experiment: Ex vivo 3H-pirenzepine binding in rat brain after patch application; conditions: after oral administration
Protocol: The patches prepared as stated herein were applied to rats. The rats were killed in pairs at various time points after application and the rat brains were removed and frozen. The binding of the M1 antagonist ligand, ^3 H-pirenzepine, to muscarinic receptors in the brain was determined. The decrease in binding is indicative of drug or active metabolite present in the brain. The effect of the drug after oral administration lasts less than 6 hours. The percent of control ex vivo pirenzepine binding at 6 hours was 33%, at 12 hours 15%, at 24 hours 26%, and at 48 hours 53%. The mean plasma concentration using this patch formulation was as follows: […]
The patches prepared as stated herein were applied to rats. The rats were killed in pairs at various time points after application and the rat brains were removed and frozen. The binding of the M1 antagonist ligand, ^3 H-pirenzepine, to muscarinic receptors in the brain was determined. The decrease in binding is indicative of drug or active metabolite present in the brain. The effect of the drug after oral administration lasts less than 6 hours. The percent of control ex vivo pirenzepine binding at 6 hours was 101%, at 12 hours 89%, at 24 hours 75%, and at 48 hours 105%.

[2] = Saturation limit of xanomeline in acrylic adhesive; format: physicochemical
Excerpt: The values had been derived from clear solutions of the drug in the adhesive. Unfortunately, the saturation limit of about 23-28% (w/w) in this polymer limits the utilization of this unexpected advantage of highly enriched xanomeline preparations. It is concluded from this unexpected results that an optimum formulation has to contain a slightly subsaturated, saturated or even supersaturated amount of xanomeline for best performance.

For `CCCCCCOc1nsnc1C1=CCCN(C)C1` [xanomeline, 3-[4-(hexyloxy)-1,2,5-thiadiazol-3-yl]-1,2,5,6-tetrahydro-1-methylpyridine], the “duration of the effect of the drug” value [1] was “less than 6 hours” and the “saturation limit in this polymer” value [2] was 23-28 % (w/w).
